“And” between values parts separate entries of the source, which are not always exact repeats. Equal values may be shown once. Toxic doses and inconclusive results are not listed. Residues, ends and D or L forms follow the SMILES beside them. *: point of attachment. Boc = CC(C)(C)OC(=O)*; OBn = c1ccc(CO*)cc1
System: BDF1 mice, P388 leukemia ip, median survival T/C
Assay: NCI In Vivo Anticancer Drug Screen. Data for tumor model P388 Leukemia (intraperitoneal) in B6D2F1 (BDF1) mice
Details: endpoint: median survival time, higher = longer survival
In short: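 Compound-treated tumour-bearing mice were compared with vehicle-treated controls. Survival was recorded, and the value is the treated-group measurement divided by the control-group measurement (T/C).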

[1] = dose: 25.0 mg/kg/injection, schedule: Q04DX003 (ip), vehicle: saline with Tween-80
[2] = dose: 50.0 mg/kg/injection, schedule: Q04DX003 (ip), vehicle: saline with Tween-80
[3] = dose: 100.0 mg/kg/injection, schedule: Q04DX003 (ip), vehicle: saline with Tween-80
[4] = dose: 25.0 mg/kg/injection, schedule: Q01DX009 (ip), vehicle: saline
[5] = dose: 50.0 mg/kg/injection, schedule: Q01DX009 (ip), vehicle: saline
[6] = dose: 100.0 mg/kg/injection, schedule: Q01DX009 (ip), vehicle: saline
[7] = dose: 100.0 mg/kg/injection, schedule: Q04DX003 (ip), vehicle: saline
[8] = dose: 200.0 mg/kg/injection, schedule: Q01DX009 (ip), vehicle: saline
[9] = dose: 200.0 mg/kg/injection, schedule: Q04DX003 (ip), vehicle: saline
[10] = dose: 100.0 mg/kg/injection, schedule: Q01DX009 (ip), vehicle: saline with Tween-80
[11] = dose: 200.0 mg/kg/injection, schedule: Q01DX009 (ip), vehicle: saline with Tween-80
[12] = dose: 200.0 mg/kg/injection, schedule: Q04DX003 (ip), vehicle: saline with Tween-80
[13] = dose: 400.0 mg/kg/injection, schedule: Q04DX003 (ip), vehicle: saline with Tween-80
[14] = dose: 25.0 mg/kg/injection, schedule: Q01DX009 (ip), vehicle: Klucel (hydroxypropylcellulose) (HPC)
[15] = dose: 50.0 mg/kg/injection, schedule: Q01DX009 (ip), vehicle: Klucel (hydroxypropylcellulose) (HPC)
[16] = dose: 100.0 mg/kg/injection, schedule: Q01DX009 (ip), vehicle: Klucel (hydroxypropylcellulose) (HPC)
[17] = dose: 200.0 mg/kg/injection, schedule: Q01DX009 (ip), vehicle: Klucel (hydroxypropylcellulose) (HPC)
[18] = dose: 50.0 mg/kg/injection, schedule: Q01DX009 (ip), vehicle: saline with Tween-80
[19] = dose: 100.0 mg/kg/injection, schedule: Q01DX005 (ip), vehicle: saline with Tween-80
[20] = dose: 400.0 mg/kg/injection, schedule: Q01DX009 (ip), vehicle: saline with Tween-80

## Cc1[nH]c(=O)[nH]c(=O)c1N(CCF)CCCl
dose: 5.0 mg/kg/injection, schedule: Q01DX009 (ip), vehicle: Klucel (hydroxypropylcellulose) (HPC)
  T/C: 150 % of control
dose: 10.0 mg/kg/injection, schedule: Q01DX009 (ip), vehicle: Klucel (hydroxypropylcellulose) (HPC)
  T/C: 172 % of control
dose: 10.0 mg/kg/injection, schedule: Q01DX009 (ip), vehicle: saline
  T/C: 162 % of control
dose: 16.5 mg/kg/injection, schedule: Q04DX003 (ip), vehicle: saline with Tween-80
  T/C: 168 % of control
[1]
  T/C: 204 % of control
dose: 37.5 mg/kg/injection, schedule: Q04DX003 (ip), vehicle: saline with Tween-80
  T/C: 200 % of control

## COc1ccc2c(c1O)-c1cccc3c1[C@@H](C2)N(CCCl)CC3
[1]
  T/C: 161 % of control
[2]
  T/C: 161 % of control

## O=[N+]([O-])/C=C/c1ccc([N+](=O)[O-])cc1
[2]
  T/C: 118 % of control
[3]
  T/C: 118 % of control

## Cc1[nH]c(=O)[nH]c(=O)c1/C=C/C(=O)NC(CO)CC(C)C (stereo unspecified)
dose: 12.5 mg/kg/injection, schedule: Q01DX009 (ip), vehicle: saline
  T/C: 108 % of control
[4]
  T/C: 90 % of control
dose: 25.0 mg/kg/injection, schedule: Q04DX003 (ip), vehicle: saline
  T/C: 107 % of control
[5]
  T/C: 102 % of control
dose: 50.0 mg/kg/injection, schedule: Q04DX003 (ip), vehicle: saline
  T/C: 100 % of control
[6]
  T/C: 91 % of control
[7]
  T/C: 91 % of control
[8]
  T/C: 108 % of control
[9]
  T/C: 109 % of control
dose: 400.0 mg/kg/injection, schedule: Q01DX009 (ip), vehicle: saline
  T/C: 100 % of control
dose: 400.0 mg/kg/injection, schedule: Q04DX003 (ip), vehicle: saline
  T/C: 116 % of control

## Cc1ccc(C)c(C(=O)CCC(=O)O)c1
dose: 12.5 mg/kg/injection, schedule: Q01DX009 (ip), vehicle: saline with Tween-80
  T/C: 108 % of control
dose: 25.0 mg/kg/injection, schedule: Q01DX009 (ip), vehicle: saline with Tween-80
  T/C: 110 % of control
[10]
  T/C: 91 % of control
[11]
  T/C: 99 % of control
[12]
  T/C: 91 % of control
[13]
  T/C: 100 % of control

## O=C(O)CCCCCCc1ccc2ccccc2n1
dose: 50.0 mg/kg/injection, schedule: Q01DX009 (ip), vehicle: other
  T/C: 105 % of control
dose: 100.0 mg/kg/injection, schedule: Q01DX009 (ip), vehicle: other
  T/C: 117 % of control
dose: 200.0 mg/kg/injection, schedule: Q01DX009 (ip), vehicle: other
  T/C: 114 % of control

## O=C(Nc1cccc(C(F)(F)F)c1)Nc1nccs1
[14]
  T/C: 121 % of control
[15]
  T/C: 111 % of control
[16]
  T/C: 102 % of control
[17]
  T/C: 104 % of control

## Nc1ncnc2c1ncn2C1CCCO1 (stereo unspecified)
[18]
  T/C: 100 % of control
[10]
  T/C: 109 % of control
[7]
  T/C: 100 % of control
[11]
  T/C: 109 % of control
[9]
  T/C: 95 % of control

## O=C(N/N=C/c1ccc(Cl)cc1Cl)c1ccccc1
[15]
  T/C: 110 % of control
[16]
  T/C: 110 % of control
[17]
  T/C: 95 % of control

## CC(C)=NNC(=O)c1ccccc1
[4]
  T/C: 104 % of control
[1]
  T/C: 95 % of control
[5]
  T/C: 109 % of control
[2]
  T/C: 95 % of control
[3]
  T/C: 100 % of control and 113 % of control

## CO[C@H]1/C=C/O[C@@]2(C)Oc3c(C)c(O)c4c(O)c(c(/C=N/N5CCNCC5)c(O)c4c3C2=O)NC(=O)/C(C)=C\C=C\[C@H](C)[C@H](O)[C@@H](C)[C@@H](O)[C@@H](C)C(OC(C)=O)[C@@H]1C (stereo partly specified)
[5]
  T/C: 114 % of control
[6]
  T/C: 114 % of control
[8]
  T/C: 114 % of control

## CC(C)(C)OC(=O)NCC(=O)NCC(=O)NCC(=O)OCc1ccccc1 (Boc-Gly-Gly-Gly-OBn)
dose: 50.0 mg/kg/injection, schedule: Q01DX005 (ip), vehicle: saline with Tween-80
  T/C: 95 % of control
[19]
  T/C: 98 % of control

## NC(=O)CN1C(=O)c2ccccc2C1=O
[10]
  T/C: 100 % of control
[3]
  T/C: 95 % of control
[11]
  T/C: 90 % of control
[12]
  T/C: 100 % of control
[20]
  T/C: 100 % of control
[13]
  T/C: 100 % of control

## C=C1C(=O)OC(/C=C(\C)CO)C1C(C/C(C)=C/CO)OC(=O)/C(C)=C\C (stereo unspecified)
dose: 12.5 mg/kg/injection, schedule: Q01DX009 (ip), vehicle: Klucel (hydroxypropylcellulose) (HPC)
  T/C: 111 % of control
[14]
  T/C: 111 % of control
[15]
  T/C: 109 % of control
[16]
  T/C: 94 % of control
[17]
  T/C: 94 % of control

## Cc1cc(C(=O)N/N=C/c2ccccc2O)c2cc(Br)ccc2n1
dose: 0.78 mg/kg/injection, schedule: Q01DX009 (ip), vehicle: saline with Tween-80
  T/C: 95 % of control
dose: 1.56 mg/kg/injection, schedule: Q01DX009 (ip), vehicle: saline with Tween-80
  T/C: 95 % of control
dose: 3.12 mg/kg/injection, schedule: Q01DX009 (ip), vehicle: saline with Tween-80
  T/C: 97 % of control

## CCN(CC)c1ccc(/C=C/c2ccncc2)cc1
dose: 100.0 mg/kg/injection, schedule: Q04DX003 (ip), vehicle: Klucel (hydroxypropylcellulose) (HPC)
  T/C: 100 % of control
dose: 200.0 mg/kg/injection, schedule: Q04DX003 (ip), vehicle: Klucel (hydroxypropylcellulose) (HPC)
  T/C: 100 % of control
dose: 400.0 mg/kg/injection, schedule: Q04DX003 (ip), vehicle: Klucel (hydroxypropylcellulose) (HPC)
  T/C: 109 % of control

## CN1CSC(=S)N(Cc2ccccc2)C1
[18]
  T/C: 90 % of control
[10]
  T/C: 90 % of control

## Cc1nc2nc(N)[nH]c(=O)c2[nH]c1=O
[10]
  T/C: 104 % of control
[11]
  T/C: 100 % of control
[20]
  T/C: 109 % of control

## CC(C)(C)OC(=O)NC(CCC(=O)O)(Cc1ccccc1)C(=O)NC(CCC(=O)OCc1ccccc1)C(=O)OCc1ccccc1 (stereo unspecified)
[19]
  T/C: 86 % of control
dose: 200.0 mg/kg/injection, schedule: Q01DX005 (ip), vehicle: saline with Tween-80
  T/C: 86 % of control
